Data reported in the supplement of paper PMC10307832.

Legend:
Experiment in all cases: relative viability (nuclei count vs DMSO), 5 days (fraction); higher = more cells survive
XMD8-85 + OSI-027 = compound: CN1CCN(CC1)C2=CC(=C(C=C2)NC3=NC=C4C(=N3)N(C5=CC=CC=C5C(=O)N4C)C)OC [XMD8-85] + COc1cccc2cc(-c3nc([C@H]4CC[C@H](C(=O)O)CC4)n4ncnc(N)c34)[nH]c12 [OSI-027] (partner 0.5 µM)
Procedure, shortened: (§1)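 Lung cancer cell lines in 1536-well plates were dosed by pin tool the day after seeding, either with one drug alone or with a fixed anchor-drug dose plus five library-drug doses (not always all listed) in √10 steps. After 5 days, cells were fixed and their nuclei stained in one step (final 0.05% Triton X-100, 1% formaldehyde, 1 ug/ml Hoechst), then counted on 4× images. Relative viability is the nuclei count in treated wells divided by that in vehicle wells. Values are medians of duplicate plates.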

XMD8-85 + Pictilisib = compound: CN1CCN(CC1)C2=CC(=C(C=C2)NC3=NC=C4C(=N3)N(C5=CC=CC=C5C(=O)N4C)C)OC [XMD8-85] + CS(=O)(=O)N1CCN(Cc2cc3nc(-c4cccc5[nH]ncc45)nc(N4CCOCC4)c3s2)CC1 [Pictilisib] (partner 1 µM)
Procedure, shortened: as §1

4EGI-1 + Lapatinib = compound: O=C(O)C(Cc1ccccc1[N+](=O)[O-])=NNc1nc(-c2ccc(Cl)c(Cl)c2)cs1 (mixture of isomers) [4EGI-1] + CS(=O)(=O)CCNCc1ccc(-c2ccc3ncnc(Nc4ccc(OCc5cccc(F)c5)c(Cl)c4)c3c2)o1 [Lapatinib] (partner 2 µM)
Procedure, shortened: as §1

4EGI-1 + Dasatinib = compound: O=C(O)C(Cc1ccccc1[N+](=O)[O-])=NNc1nc(-c2ccc(Cl)c(Cl)c2)cs1 (mixture of isomers) [4EGI-1] + Cc1nc(Nc2ncc(C(=O)Nc3c(C)cccc3Cl)s2)cc(N2CCN(CCO)CC2)n1 [Dasatinib] (partner 0.075 µM)
Procedure, shortened: as §1

Row | Cell Line | relative viability (XMD8-85 + OSI-027; first compound 0.08 µM) | relative viability (XMD8-85 + OSI-027; first compound 0.253 µM) | relative viability (XMD8-85 + OSI-027; first compound 0.8 µM) | relative viability (XMD8-85 + OSI-027; first compound 2.53 µM) | relative viability (XMD8-85 + OSI-027; first compound 8 µM) | relative viability (XMD8-85 + Pictilisib; first compound 0.08 µM) | relative viability (XMD8-85 + Pictilisib; first compound 0.253 µM) | relative viability (XMD8-85 + Pictilisib; first compound 0.8 µM) | relative viability (XMD8-85 + Pictilisib; first compound 2.53 µM) | relative viability (XMD8-85 + Pictilisib; first compound 8 µM) | relative viability (4EGI-1 + Lapatinib; first compound 0.5 µM) | relative viability (4EGI-1 + Lapatinib; first compound 1.581 µM) | relative viability (4EGI-1 + Lapatinib; first compound 5 µM) | relative viability (4EGI-1 + Lapatinib; first compound 15.81 µM) | relative viability (4EGI-1 + Lapatinib; first compound 50 µM) | relative viability (4EGI-1 + Dasatinib; first compound 0.5 µM) | relative viability (4EGI-1 + Dasatinib; first compound 1.581 µM) | relative viability (4EGI-1 + Dasatinib; first compound 5 µM) | relative viability (4EGI-1 + Dasatinib; first compound 15.81 µM) | relative viability (4EGI-1 + Dasatinib; first compound 50 µM)
1 | NCI-H3122 | 0.867 | 1.02 | 1.34 | 1.08 | 0.532 | 0.687 | 0.573 | 0.649 | 0.646 | 0.611 | 1.05 | 0.922 | 1.02 | 0.955 | 0.578 | 0.967 | 0.739 | 0.881 | 0.841 | 0.239
2 | PC-3 [JPC-3] | 0.769 | 0.754 | 0.698 | 0.814 | 0.71 | 0.717 | 0.666 | 0.766 | 0.879 | 0.672 | 0.518 | 0.416 | 0.443 | – | 0.39 | 1.03 | 0.978 | 0.893 | – | 0.937
3 | PC-14 | 0.835 | 0.971 | 0.776 | – | 0.373 | 0.618 | 0.521 | 0.661 | 0.681 | 0.462 | 0.355 | 0.353 | 0.371 | – | 0.296 | 0.342 | – | 0.297 | 0.0363 | 0.0488
4 | RERF-LC-KJ | 0.684 | 0.504 | 0.645 | 0.577 | 0.461 | 0.504 | 0.444 | 0.524 | 0.603 | 0.412 | 0.93 | 0.677 | 0.808 | 0.64 | 0.644 | 0.999 | – | 0.641 | 0.496 | 0.266
5 | SK-LU-1 | 0.287 | 0.383 | – | 0.365 | 0.297 | 0.397 | – | 0.569 | 0.6 | 0.522 | 0.972 | 1.06 | 0.803 | 0.698 | 0.487 | 0.189 | 0.186 | 0.178 | 0.198 | 0.185
6 | SK-MES-1 | 0.533 | 0.657 | 0.608 | 0.525 | 0.457 | 0.349 | 0.371 | 0.342 | 0.383 | 0.375 | 0.51 | 0.419 | 0.479 | 0.459 | 0.395 | 0.479 | 0.312 | 0.34 | 0.356 | 0.198
7 | SW 1573 | 0.566 | 0.61 | 0.669 | 0.607 | 0.327 | 0.574 | 0.523 | 0.591 | 0.487 | 0.357 | 1.33 | 0.86 | 1.17 | 0.898 | 1.17 | 0.7 | 0.254 | 0.593 | 0.234 | 0.0967
8 | UMC-11 | 0.457 | 0.461 | 0.521 | 0.436 | 0.371 | 0.696 | 0.757 | 0.922 | 0.796 | 0.513 | 1.19 | 0.825 | 1.31 | 1.17 | 0.669 | 0.502 | 0.462 | 0.406 | 0.415 | 0.208
